# Test results taken from ChEMBL document CHEMBL4834481, “1-Aminomethyl SAR in a novel series of flavagline-inspired eIF4A inhibitors: Effects of amine substitution on cell potency and in vitro PK properties” (Bioorg Med Chem Lett, 2021).
# How the values were obtained:
# [1] = Metabolic stability of the compound in human liver microsomes assessed as parent compound remaining measured after 30 mins; format: ADME, Microsome; settings: read-out: Stabilty
# [2] = tested on: MDA-MB-231; experiment: Antiproliferative activity against human MDA-MB-231 cells; format: functional, cell-based
# [3] = target: hERG (KCNH2) (Homo sapiens, UniProt Q12809); experiment: Inhibition of human ERG at 10 uM by automated patch method relative to control
# [4] = Permeability of the compound across apical to basolateral side in human Caco-2 cells; format: ADME, cell-based; settings: read-out: permeability
# [5] = Efflux ratio of permeability in human Caco-2 cells; format: ADME, cell-based
# [6] = Metabolic stability of the compound in rat liver microsomes assessed as parent compound remaining measured after 30 mins; format: ADME, Microsome; settings: read-out: Stabilty
# [7] = Metabolic stability of the compound in mouse liver microsomes assessed as parent compound remaining measured after 30 mins; format: ADME, Microsome; settings: for remaining at 0.5 h: liver microsomes, read-out: Stabilty
# [8] = target: T1, Eukaryotic initiation factor 4A-I (Homo sapiens, UniProt P60842); experiment: Inhibition of eIF4A (unknown origin) assessed as inhibition of translation of RNA featuring highly structured 5'-UTR of c-Myc
# [9] = species on record: Homo sapiens; experiment: Selectivity ratio of IC50 for inhibition of eIF4A (unknown origin) assessed as inhibition of translation of RNA featuring short 5'-UTR of tubulin to IC50 for inhibition of eIF4A (unknown origin) assessed as inhibition of translation of RNA featuring highly structured 5'-UTR of c-Myc
# [10] = target: T1, Eukaryotic initiation factor 4A-I; experiment: Inhibition of eIF4A (unknown origin) assessed as inhibition of translation of RNA featuring short 5'-UTR of tubulin
# [11] = tested on: MDA-MB-231; experiment: Antiproliferative activity against human MDA-MB-231 cells assessed as inhibition of cell viability incubated for 72 hrs by CellTiter-Glo assay; format: functional, cell-based; settings: MDA-MB-231, 72 h
# T1 sequence (P60842 whole entry): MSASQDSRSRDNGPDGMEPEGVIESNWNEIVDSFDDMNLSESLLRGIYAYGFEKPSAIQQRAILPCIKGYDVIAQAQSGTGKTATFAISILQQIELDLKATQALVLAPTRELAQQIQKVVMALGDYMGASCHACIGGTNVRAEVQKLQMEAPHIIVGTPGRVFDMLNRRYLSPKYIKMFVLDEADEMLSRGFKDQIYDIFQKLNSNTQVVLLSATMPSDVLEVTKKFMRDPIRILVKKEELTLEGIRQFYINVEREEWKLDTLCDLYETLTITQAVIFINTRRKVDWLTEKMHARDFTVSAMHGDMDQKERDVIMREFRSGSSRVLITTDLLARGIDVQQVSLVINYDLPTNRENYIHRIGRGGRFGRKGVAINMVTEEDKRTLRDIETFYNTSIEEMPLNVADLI
# hERG (KCNH2), sequence (Q12809 whole entry): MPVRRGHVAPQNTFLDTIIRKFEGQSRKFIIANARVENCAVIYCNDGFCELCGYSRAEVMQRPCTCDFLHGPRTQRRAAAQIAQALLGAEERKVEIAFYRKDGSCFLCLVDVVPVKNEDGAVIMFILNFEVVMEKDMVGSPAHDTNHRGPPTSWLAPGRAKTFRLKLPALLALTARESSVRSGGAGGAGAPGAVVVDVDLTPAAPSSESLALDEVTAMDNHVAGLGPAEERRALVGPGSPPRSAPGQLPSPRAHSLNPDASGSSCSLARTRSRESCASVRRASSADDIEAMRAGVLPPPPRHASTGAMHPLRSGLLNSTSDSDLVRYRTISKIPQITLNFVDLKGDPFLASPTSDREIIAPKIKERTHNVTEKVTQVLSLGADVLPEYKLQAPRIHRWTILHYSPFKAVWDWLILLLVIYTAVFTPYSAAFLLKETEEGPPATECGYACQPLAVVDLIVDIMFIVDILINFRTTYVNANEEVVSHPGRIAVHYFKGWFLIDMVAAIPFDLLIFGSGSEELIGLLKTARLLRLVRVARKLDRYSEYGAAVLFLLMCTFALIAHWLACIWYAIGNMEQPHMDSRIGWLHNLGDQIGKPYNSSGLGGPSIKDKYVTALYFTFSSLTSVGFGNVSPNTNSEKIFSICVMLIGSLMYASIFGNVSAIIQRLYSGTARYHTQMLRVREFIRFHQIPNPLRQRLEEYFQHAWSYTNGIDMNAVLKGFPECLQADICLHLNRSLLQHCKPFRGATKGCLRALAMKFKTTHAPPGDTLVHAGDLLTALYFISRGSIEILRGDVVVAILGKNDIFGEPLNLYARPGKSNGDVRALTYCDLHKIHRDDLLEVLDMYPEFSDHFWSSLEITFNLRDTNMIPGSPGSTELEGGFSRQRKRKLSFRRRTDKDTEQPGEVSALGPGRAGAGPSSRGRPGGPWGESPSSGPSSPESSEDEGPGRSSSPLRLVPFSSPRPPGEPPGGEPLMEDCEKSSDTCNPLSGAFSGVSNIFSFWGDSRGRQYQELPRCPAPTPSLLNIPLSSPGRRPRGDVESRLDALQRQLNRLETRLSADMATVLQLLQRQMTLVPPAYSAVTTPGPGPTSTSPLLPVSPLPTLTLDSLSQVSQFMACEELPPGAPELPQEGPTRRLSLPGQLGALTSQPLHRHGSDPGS
IC50 [8] [nM],Ratio IC50 [9],IC50 [10] [nM],EC50 [11] [nM],"Stabilty ([7]; microsomes, 0.5 h) [%]",Structure (SMILES),remaining at 0.5 h [1] [%],EC50 [2] [nM],inhibition at 10 µM [3] [%],Papp A→B [4] [×10⁻⁶ cm/s],efflux ratio [5],remaining at 0.5 h [6] [%],remaining at 0.5 h [7] [%]
,,,,,COc1cncc2c1[C@]1(O)[C@@H](CNC3COC3)[C@H](CO)[C@@H](c3ccccc3)[C@]1(c1ccc(C#N)cc1)O2 (racemic),61,29,< 10,0.73,12,18,24
,,,,,COc1cncc2c1[C@]1(O)[C@@H](CN)[C@H](CO)[C@@H](c3ccccc3)[C@]1(c1ccc(C#N)cc1)O2 (racemic),95,106,< 10,< 0.07,> 4,97,83
,,,28,,N#Cc1ccc([C@@]23Oc4cc(Cl)cnc4[C@]2(O)[C@@H](CN)C[C@H]3c2ccccc2)cc1 (racemic),,,,,,,
,,,,,COc1cncc2c1[C@]1(O)[C@@H](CNCc3ccnn3C)[C@H](CO)[C@@H](c3ccccc3)[C@]1(c1ccc(C#N)cc1)O2 (racemic),1,38,,0.19,76,2,1
,,,,,COc1cncc2c1[C@]1(O)[C@@H](CN(C)C)[C@H](CO)[C@@H](c3ccccc3)[C@]1(c1ccc(C#N)cc1)O2 (racemic),77,8,79,0.4,33,61,67
5,4.2,21,,123,COc1cncc2c1[C@]1(O)[C@@H](CN)C[C@@H](c3ccccc3)[C@]1(c1ccc(Br)cc1)O2 (racemic),99,15,,0.43,13,58,
2.3,4.8,11,,,COc1cncc2c1[C@]1(O)[C@@H](CNC3COC3)[C@H](CO)[C@@H](c3ccccc3)[C@]1(c1ccc(Br)cc1)O2 (racemic),,8,,,,,
5.6,3.9,22,,,COc1cncc2c1[C@]1(O)[C@@H](CN)C[C@@H](c3ccccc3)[C@]1(c1ccc(C#N)cc1)O2 (racemic),102,11,54,0.13,58,85,108
,,,,,COc1cncc2c1[C@]1(O)[C@@H](CN3CC4(COC4)C3)[C@H](CO)[C@@H](c3ccccc3)[C@]1(c1ccc(C#N)cc1)O2 (racemic),92,19,,0.19,86,48,67
,,,,,COc1cncc2c1[C@]1(O)[C@@H](CNCC(F)F)[C@H](CO)[C@@H](c3ccccc3)[C@]1(c1ccc(C#N)cc1)O2 (racemic),19,21,27,0.82,6.7,0,1
,,,,,COc1cncc2c1[C@]1(O)[C@@H](CN3CCOCC3)[C@H](CO)[C@@H](c3ccccc3)[C@]1(c1ccc(C#N)cc1)O2 (racemic),51,81,< 10,2.2,7,27,41

Structure (SMILES),IC50 [8] [nM],Ratio IC50 [9],IC50 [10] [nM],EC50 [11] [nM],"Stabilty ([7]; microsomes, 0.5 h) [%]",remaining at 0.5 h [1] [%],EC50 [2] [nM],inhibition at 10 µM [3] [%],Papp A→B [4] [×10⁻⁶ cm/s],efflux ratio [5],remaining at 0.5 h [6] [%],remaining at 0.5 h [7] [%]
COc1cncc2c1[C@]1(O)[C@@H](CN3CCOCC3)[C@H](CO)[C@@H](c3ccccc3)[C@]1(c1ccc(Br)cc1)O2 (racemic),10,3.2,32,,,6,39,12,,,0,1
COc1cncc2c1[C@]1(O)[C@@H](CN)[C@H](CO)[C@@H](c3ccccc3)[C@]1(c1ccc(Br)cc1)O2 (racemic),25,3.6,89,,,102,48,37,0.04,61,95,107
